Laboratory results published in paper PMC6118387, “In silico drug absorption tract: An agent-based biomimetic model for human oral drug absorption” (PLoS ONE, 2018).
Several values for one entry are separate records, joined by “and”; a condition that tells them apart may be missing. Equal entries are not always repeated. Where two headings read alike, the source gives them in different places.

Legend:
[1] = clonazepam, literature referent value, cited from earlier work
[2] = Clinical bioequivalence study: plasma concentrations (LC-MS-MS) and noncompartmental PK after oral tablet; assay type: in vivo, human; settings: for Concentration, individual subjects / concentration at 0 h / concentration at 0.5 h / concentration at 1 h / concentration at 1.5 h / concentration at 2 h / concentration at 3 h / concentration at 4 h / concentration at 6 h / concentration at 8 h / concentration at 10 h / concentration at 12 h / concentration at 24 h / concentration at 48 h / concentration at 72 h / concentration at 96 h: clonazepam 2 mg oral; for concentration at 0 h / concentration at 0.5 h / concentration at 1 h / concentration at 1.5 h / concentration at 2 h / concentration at 3 h / concentration at 4 h / concentration at 6 h / concentration at 8 h / concentration at 10 h / concentration at 12 h / concentration at 24 h / concentration at 48 h / concentration at 72 h / concentration at 96 h: po
[3] = model drug parameter fixed to literature reported value, cited from earlier work
[4] = Referent clinical, clonazepam 2 mg tablet oral, N = 14, mean ±1 SD
[5] = human, plasma, 2 mg, plasma, MEAN column of the sheet with 15 subject columns, read-out: Concentration, MEAN of raw data sheet
[6] = human, plasma, 2 mg, plasma, mean ±1 SD N=14, read-out: Concentration, Referent
[7] = human, plasma, 2 mg, plasma, one value per subject (A1-A6, A8, B1-B8; B5 consumed alcohol), read-out: Concentration, individual subjects
[8] = human, plasma, Referent clinical, clonazepam 2 mg tablet oral, N = 14, mean ±1 SD

In the case of `O=C1CN=C(c2ccccc2Cl)c2cc([N+](=O)[O-])ccc2N1` [Clonazepam, clonazepam], the “F (absolute oral bioavailability)” value [1] is given as at least 90%, the “Fa × Fg” value [1] is given as 93–95% and the Fh [1] is given as 95–97%. The “Fa × Fg” value ([1]; listed as clonazepam) was 93–95%, the Fh ([1]; listed as clonazepam) was 95–97% and the CL/F [2, 4] was 3.88 ± 0.68 L/h. For the same compound, the V/F [2, 4] was 186.84 ± 25.25 L, the “Concentration, individual subjects” value ([2]; plasma, 4 h, one value per subject (A1-A6, A8, B1-B8; B5 consumed alcohol)) was 12.61 ng/mL and 14.34 ng/mL and 8.84 ng/mL and 12.65 ng/mL and 11.84 ng/mL and 14.63 ng/mL and 14.50 ng/mL and 12.96 ng/mL and 13.82 ng/mL and 11.06 ng/mL and 13.21 ng/mL and 17.02 ng/mL and 10.16 ng/mL and 10.55 ng/mL and the “Concentration, individual subjects” value ([2]; plasma, 6 h, one value per subject (A1-A6, A8, B1-B8; B5 consumed alcohol)) was 10.50 ng/mL and 9.64 ng/mL and 15.51 ng/mL and 7.70 ng/mL and 10.12 ng/mL and 10.42 ng/mL and 11.00 ng/mL and 12.04 ng/mL and 12.42 ng/mL and 11.68 ng/mL and 12.48 ng/mL and 8.95 ng/mL and 12.72 ng/mL and 9.18 ng/mL and 8.60 ng/mL. The “Concentration, individual subjects” value ([2]; plasma, 8 h, one value per subject (A1-A6, A8, B1-B8; B5 consumed alcohol)) was 8.58 ng/mL and 9.87 ng/mL and 7.12 ng/mL and 7.80 ng/mL and 8.38 ng/mL and 11.29 ng/mL and 11.40 ng/mL and 10.91 ng/mL and 10.98 ng/mL and 11.71 ng/mL and 8.16 ng/mL and 11.31 ng/mL and 8.88 ng/mL and 8.34 ng/mL, the “Concentration, individual subjects” value ([2]; plasma, 10 h, one value per subject (A1-A6, A8, B1-B8; B5 consumed alcohol)) was 8.87 ng/mL and 11.42 ng/mL and 6.58 ng/mL and 7.89 ng/mL and 9.42 ng/mL and 8.97 ng/mL and 9.96 ng/mL and 11.87 ng/mL and 8.66 ng/mL and 9.83 ng/mL and 8.47 ng/mL and 9.69 ng/mL and 7.40 ng/mL and 7.44 ng/mL and the “Concentration, individual subjects” value ([2]; plasma, 12 h, one value per subject (A1-A6, A8, B1-B8; B5 consumed alcohol)) was 8.09 ng/mL and 8.83 ng/mL and 6.28 ng/mL and 6.29 ng/mL and 8.86 ng/mL and 7.97 ng/mL and 9.45 ng/mL and 11.04 ng/mL and 8.02 ng/mL and 9.77 ng/mL and 7.69 ng/mL and 8.43 ng/mL and 7.52 ng/mL and 6.76 ng/mL. For the same compound, the “Concentration, individual subjects” value ([2]; plasma, 24 h, one value per subject (A1-A6, A8, B1-B8; B5 consumed alcohol)) was 7.01 ng/mL and 7.87 ng/mL and 5.83 ng/mL and 6.96 ng/mL and 7.45 ng/mL and 7.77 ng/mL and 8.74 ng/mL and 8.99 ng/mL and 7.52 ng/mL and 8.66 ng/mL and 7.57 ng/mL and 8.32 ng/mL and 5.43 ng/mL and 6.77 ng/mL, the “Concentration, individual subjects” value ([2]; plasma, 48 h, one value per subject (A1-A6, A8, B1-B8; B5 consumed alcohol)) was 4.72 ng/mL and 5.20 ng/mL and 6.30 ng/mL and 3.61 ng/mL and 5.16 ng/mL and 4.16 ng/mL and 6.22 ng/mL and 4.74 ng/mL and 6.11 ng/mL and 5.31 ng/mL and 5.10 ng/mL and 5.12 ng/mL and 5.25 ng/mL and 4.06 ng/mL and 3.12 ng/mL and the Cmax ([2]; human, plasma, oral, 2 mg, clonazepam, peak of the mean clinical concentration-time profile over 96 hours) was 13.5 ng/mL. It also gave a concentration at 0 h [2, 5] of 0 ng/mL, a concentration at 0 h [2, 6] of 0 ng/mL and a concentration at 0 h [2, 7] of 0 ng/mL. The concentration at 0.5 h [2, 5] was 6.65 ng/mL, the concentration at 0.5 h [2, 6] was 7.13 ± 7.06 ng/mL and the concentration at 1 h [2, 5] was 13 ng/mL. For the same compound, the concentration at 1 h [2, 6] was 13.4 ± 5.29 ng/mL, the concentration at 1.5 h [2, 5] was 13.5 ng/mL and the concentration at 1.5 h [2, 6] was 13.9 ± 3.71 ng/mL. For the same compound, the concentration at 2 h [2, 5] was 13.1 ng/mL, the concentration at 2 h [2, 6] was 13.3 ± 2.82 ng/mL and the concentration at 2 h [2, 7] was 13.7 ng/mL. The concentration at 3 h [2, 5] was 12.7 ng/mL, the concentration at 3 h [2, 6] was 12.9 ± 2.36 ng/mL and the concentration at 3 h [2, 7] was 12.5 ng/mL. For the same compound, the concentration at 4 h ([2]; human, plasma, 2 mg, plasma, 4 h, MEAN column of the sheet with 15 subject columns, read-out: Concentration, MEAN of raw data sheet) was 12.7 ng/mL, the concentration at 4 h ([2]; human, plasma, 2 mg, plasma, 4 h, mean ±1 SD N=14, read-out: Concentration, Referent) was 13 ± 1.82 ng/mL and the concentration at 4 h ([2]; human, plasma, 2 mg, plasma, 4 h, one value per subject (A1-A6, A8, B1-B8; B5 consumed alcohol), read-out: Concentration, individual subjects) was 12.7 ng/mL. For the same compound, the concentration at 6 h ([2]; human, plasma, 2 mg, plasma, 6 h, MEAN column of the sheet with 15 subject columns, read-out: Concentration, MEAN of raw data sheet) was 10.9 ng/mL, the concentration at 6 h ([2]; human, plasma, 2 mg, plasma, 6 h, mean ±1 SD N=14, read-out: Concentration, Referent) was 11.1 ± 1.87 ng/mL and the concentration at 8 h ([2]; human, plasma, 2 mg, plasma, 8 h, MEAN column of the sheet with 15 subject columns, read-out: Concentration, MEAN of raw data sheet) was 9.62 ng/mL. It also gave a concentration at 8 h ([2]; human, plasma, 2 mg, plasma, 8 h, mean ±1 SD N=14, read-out: Concentration, Referent) of 9.8 ± 1.43 ng/mL, a concentration at 8 h ([2]; human, plasma, 2 mg, plasma, 8 h, one value per subject (A1-A6, A8, B1-B8; B5 consumed alcohol), read-out: Concentration, individual subjects) of 9.63 ng/mL and a concentration at 10 h ([2]; human, plasma, 2 mg, plasma, 10 h, MEAN column of the sheet with 15 subject columns, read-out: Concentration, MEAN of raw data sheet) of 9.05 ng/mL. It also gave a concentration at 10 h ([2]; human, plasma, 2 mg, plasma, 10 h, mean ±1 SD N=14, read-out: Concentration, Referent) of 9.23 ± 1.31 ng/mL, a concentration at 10 h ([2]; human, plasma, 2 mg, plasma, 10 h, one value per subject (A1-A6, A8, B1-B8; B5 consumed alcohol), read-out: Concentration, individual subjects) of 9.31 ng/mL and a concentration at 12 h ([2]; human, plasma, 2 mg, plasma, 12 h, MEAN column of the sheet with 15 subject columns, read-out: Concentration, MEAN of raw data sheet) of 8.25 ng/mL. The concentration at 12 h ([2]; human, plasma, 2 mg, plasma, 12 h, mean ±1 SD N=14, read-out: Concentration, Referent) was 8.39 ± 1.22 ng/mL, the concentration at 12 h ([2]; human, plasma, 2 mg, plasma, 12 h, one value per subject (A1-A6, A8, B1-B8; B5 consumed alcohol), read-out: Concentration, individual subjects) was 8.78 ng/mL and the concentration at 24 h ([2]; human, plasma, 2 mg, plasma, 24 h, MEAN column of the sheet with 15 subject columns, read-out: Concentration, MEAN of raw data sheet) was 7.53 ng/mL. It also gave a concentration at 24 h ([2]; human, plasma, 2 mg, plasma, 24 h, mean ±1 SD N=14, read-out: Concentration, Referent) of 7.65 ± 0.93 ng/mL, a concentration at 24 h ([2]; human, plasma, 2 mg, plasma, 24 h, one value per subject (A1-A6, A8, B1-B8; B5 consumed alcohol), read-out: Concentration, individual subjects) of 8.02 ng/mL and a concentration at 48 h ([2]; human, plasma, 2 mg, plasma, 48 h, MEAN column of the sheet with 15 subject columns, read-out: Concentration, MEAN of raw data sheet) of 4.95 ng/mL. It also gave a concentration at 48 h ([2]; human, plasma, 2 mg, plasma, 48 h, mean ±1 SD N=14, read-out: Concentration, Referent) of 5.04 ± 0.87 ng/mL, a concentration at 72 h [2, 5] of 3.13 ng/mL and a concentration at 72 h [2, 6] of 3.22 ± 0.71 ng/mL. For the same compound, the concentration at 96 h [2, 5] was 1.89 ng/mL, the concentration at 96 h [2, 6] was 1.95 ± 0.58 ng/mL and the AUC [2, 8] was 529 ± 80.8 ng·h/mL. The Cmax [2, 8] was 16.2 ± 4.28 ng/mL, the half-life [2, 8] was 49 ± 7.79 h and the k el [2, 8] was 5.83e-06 s⁻¹. The Tmax ([2]; human, plasma, Referent clinical, clonazepam 2 mg tablet oral, N = 14, median, read-out: Tmax) was 1.5 h, the “Pka, In silico acid/base equilibrium constant” value ([3]; first printed value) was 1.86 and the “Pka, In silico acid/base equilibrium constant” value ([3]; second printed value) was 11.89.
